The text below walks through data of patent US20240246942A1, “KINASE INHIBITORS FOR THE TREATMENT OF NEURODEGENERATIVE DISEASES” (priority 2020, published 2024).

Common to all, as to experiment: biochemical
Assay [1] concerns the target T1, panel of 374 wild-type kinases (Homo sapiens, UniProt Q8NEV4).
T1 construct: purchased Reaction Biology Corporation
Particulars: MYO3A, read-out: % Enzyme Activity (relative to DMSO controls).

The target of assay [2] is T2, panel of 374 wild-type kinases (Homo sapiens, UniProt O75385).
T2 construct: purchased Reaction Biology Corporation
T2 sequence (O75385 1-1050): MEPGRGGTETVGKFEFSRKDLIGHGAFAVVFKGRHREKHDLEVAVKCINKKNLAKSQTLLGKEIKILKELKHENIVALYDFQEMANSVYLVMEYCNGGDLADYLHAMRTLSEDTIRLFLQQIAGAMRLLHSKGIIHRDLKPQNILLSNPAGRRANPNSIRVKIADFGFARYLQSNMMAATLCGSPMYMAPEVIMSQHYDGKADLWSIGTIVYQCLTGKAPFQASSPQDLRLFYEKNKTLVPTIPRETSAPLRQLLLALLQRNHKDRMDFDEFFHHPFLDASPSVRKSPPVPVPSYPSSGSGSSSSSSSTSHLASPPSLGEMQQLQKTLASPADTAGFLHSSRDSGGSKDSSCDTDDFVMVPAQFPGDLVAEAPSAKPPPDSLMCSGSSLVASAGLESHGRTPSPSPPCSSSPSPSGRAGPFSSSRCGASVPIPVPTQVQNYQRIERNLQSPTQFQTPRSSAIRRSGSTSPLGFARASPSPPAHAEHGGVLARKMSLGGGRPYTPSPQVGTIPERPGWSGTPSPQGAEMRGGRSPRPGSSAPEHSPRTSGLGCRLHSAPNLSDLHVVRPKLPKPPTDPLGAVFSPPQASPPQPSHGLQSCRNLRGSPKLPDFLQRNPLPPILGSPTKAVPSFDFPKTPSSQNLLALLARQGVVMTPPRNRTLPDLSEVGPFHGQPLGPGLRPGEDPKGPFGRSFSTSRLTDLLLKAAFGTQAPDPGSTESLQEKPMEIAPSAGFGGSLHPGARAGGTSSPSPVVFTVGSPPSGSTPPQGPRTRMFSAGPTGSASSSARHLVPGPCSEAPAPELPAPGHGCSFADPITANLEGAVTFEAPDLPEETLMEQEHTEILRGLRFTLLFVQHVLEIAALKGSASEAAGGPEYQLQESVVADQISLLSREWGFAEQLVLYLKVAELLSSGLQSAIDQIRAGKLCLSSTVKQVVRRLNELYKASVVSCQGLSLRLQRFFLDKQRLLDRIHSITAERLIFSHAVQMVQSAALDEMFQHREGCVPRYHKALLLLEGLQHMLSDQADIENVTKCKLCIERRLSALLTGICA
The conditions noted are these: read-out: % Enzyme Activity (relative to DMSO controls), kinase ULK1.

The target of assay [3] is T3, panel of 374 wild-type kinases (Homo sapiens, UniProt P54762).
T3 construct: purchased Reaction Biology Corporation
T3 sequence (P54762 18-984): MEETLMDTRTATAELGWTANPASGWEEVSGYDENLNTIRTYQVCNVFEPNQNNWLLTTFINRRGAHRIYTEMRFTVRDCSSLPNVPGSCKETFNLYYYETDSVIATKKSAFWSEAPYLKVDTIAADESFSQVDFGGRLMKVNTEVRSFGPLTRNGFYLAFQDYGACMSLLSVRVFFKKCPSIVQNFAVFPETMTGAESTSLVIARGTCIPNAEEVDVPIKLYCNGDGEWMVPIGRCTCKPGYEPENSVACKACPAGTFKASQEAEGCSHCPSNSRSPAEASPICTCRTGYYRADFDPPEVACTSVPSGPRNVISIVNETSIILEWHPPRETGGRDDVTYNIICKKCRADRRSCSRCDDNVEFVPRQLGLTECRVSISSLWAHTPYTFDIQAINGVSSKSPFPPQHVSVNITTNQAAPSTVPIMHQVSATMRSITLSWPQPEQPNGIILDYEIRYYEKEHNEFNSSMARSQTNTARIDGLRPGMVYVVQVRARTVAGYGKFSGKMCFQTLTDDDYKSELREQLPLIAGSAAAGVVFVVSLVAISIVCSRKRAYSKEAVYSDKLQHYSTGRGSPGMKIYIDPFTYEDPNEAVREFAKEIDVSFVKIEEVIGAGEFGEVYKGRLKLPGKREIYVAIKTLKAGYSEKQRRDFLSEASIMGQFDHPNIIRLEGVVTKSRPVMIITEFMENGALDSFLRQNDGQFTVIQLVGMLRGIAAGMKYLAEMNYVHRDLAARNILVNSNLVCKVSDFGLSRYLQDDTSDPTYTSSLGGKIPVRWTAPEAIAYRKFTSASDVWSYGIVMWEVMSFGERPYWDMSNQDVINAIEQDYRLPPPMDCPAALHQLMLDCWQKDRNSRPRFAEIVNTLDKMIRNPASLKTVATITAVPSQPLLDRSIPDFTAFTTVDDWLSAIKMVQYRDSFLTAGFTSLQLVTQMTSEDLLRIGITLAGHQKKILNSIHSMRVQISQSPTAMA
Particulars: read-out: % Enzyme Activity (relative to DMSO controls), EPHB1.

The target of assay [4] is T4, panel of 374 wild-type kinases (Homo sapiens, UniProt Q15418).
T4 construct: purchased Reaction Biology Corporation
T4 sequence (Q15418 whole entry): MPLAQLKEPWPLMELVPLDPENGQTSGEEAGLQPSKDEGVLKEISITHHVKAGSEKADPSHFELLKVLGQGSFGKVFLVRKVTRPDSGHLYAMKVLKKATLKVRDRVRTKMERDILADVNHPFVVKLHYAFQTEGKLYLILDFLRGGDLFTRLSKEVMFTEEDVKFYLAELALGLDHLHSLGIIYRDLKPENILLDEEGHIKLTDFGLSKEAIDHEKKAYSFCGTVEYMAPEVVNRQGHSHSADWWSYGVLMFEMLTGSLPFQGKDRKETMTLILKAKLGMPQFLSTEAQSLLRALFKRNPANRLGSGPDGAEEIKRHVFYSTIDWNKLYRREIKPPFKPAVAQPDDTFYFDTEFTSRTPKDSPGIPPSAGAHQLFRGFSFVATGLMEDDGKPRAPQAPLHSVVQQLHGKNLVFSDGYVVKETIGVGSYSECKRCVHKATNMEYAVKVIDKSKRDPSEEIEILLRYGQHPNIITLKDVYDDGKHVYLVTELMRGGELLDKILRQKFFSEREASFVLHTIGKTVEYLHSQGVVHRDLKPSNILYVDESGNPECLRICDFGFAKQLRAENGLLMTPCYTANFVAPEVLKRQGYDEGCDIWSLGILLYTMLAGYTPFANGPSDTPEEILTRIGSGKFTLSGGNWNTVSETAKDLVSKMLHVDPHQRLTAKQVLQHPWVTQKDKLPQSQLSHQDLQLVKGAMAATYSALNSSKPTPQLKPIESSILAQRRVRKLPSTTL
The conditions noted are these: read-out: % Enzyme Activity (relative to DMSO controls), kinase RSK1.

Assay [5] has as its target T5, panel of 374 wild-type kinases (Homo sapiens, UniProt P53667).
T5 construct: purchased Reaction Biology Corporation
The conditions noted are these: read-out: % Enzyme Activity (relative to DMSO controls), LIMK1.

T5 sequence (P53667 whole entry): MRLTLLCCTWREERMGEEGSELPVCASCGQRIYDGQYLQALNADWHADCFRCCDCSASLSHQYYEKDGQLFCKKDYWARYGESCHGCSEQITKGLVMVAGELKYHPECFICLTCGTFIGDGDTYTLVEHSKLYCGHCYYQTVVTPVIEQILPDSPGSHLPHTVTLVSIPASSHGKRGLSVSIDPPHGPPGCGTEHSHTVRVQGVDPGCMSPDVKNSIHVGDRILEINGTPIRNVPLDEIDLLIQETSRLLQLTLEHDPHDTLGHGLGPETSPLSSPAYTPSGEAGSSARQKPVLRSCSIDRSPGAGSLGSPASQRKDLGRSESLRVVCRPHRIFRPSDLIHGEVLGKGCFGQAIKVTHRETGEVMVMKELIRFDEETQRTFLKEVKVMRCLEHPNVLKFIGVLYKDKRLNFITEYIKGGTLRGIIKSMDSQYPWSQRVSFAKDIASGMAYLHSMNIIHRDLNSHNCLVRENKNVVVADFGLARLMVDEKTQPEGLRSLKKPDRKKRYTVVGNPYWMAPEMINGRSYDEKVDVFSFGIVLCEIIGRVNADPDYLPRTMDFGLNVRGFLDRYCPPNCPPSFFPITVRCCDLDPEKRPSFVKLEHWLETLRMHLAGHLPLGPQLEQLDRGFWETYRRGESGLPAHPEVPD
T1 sequence (Q8NEV4 whole entry): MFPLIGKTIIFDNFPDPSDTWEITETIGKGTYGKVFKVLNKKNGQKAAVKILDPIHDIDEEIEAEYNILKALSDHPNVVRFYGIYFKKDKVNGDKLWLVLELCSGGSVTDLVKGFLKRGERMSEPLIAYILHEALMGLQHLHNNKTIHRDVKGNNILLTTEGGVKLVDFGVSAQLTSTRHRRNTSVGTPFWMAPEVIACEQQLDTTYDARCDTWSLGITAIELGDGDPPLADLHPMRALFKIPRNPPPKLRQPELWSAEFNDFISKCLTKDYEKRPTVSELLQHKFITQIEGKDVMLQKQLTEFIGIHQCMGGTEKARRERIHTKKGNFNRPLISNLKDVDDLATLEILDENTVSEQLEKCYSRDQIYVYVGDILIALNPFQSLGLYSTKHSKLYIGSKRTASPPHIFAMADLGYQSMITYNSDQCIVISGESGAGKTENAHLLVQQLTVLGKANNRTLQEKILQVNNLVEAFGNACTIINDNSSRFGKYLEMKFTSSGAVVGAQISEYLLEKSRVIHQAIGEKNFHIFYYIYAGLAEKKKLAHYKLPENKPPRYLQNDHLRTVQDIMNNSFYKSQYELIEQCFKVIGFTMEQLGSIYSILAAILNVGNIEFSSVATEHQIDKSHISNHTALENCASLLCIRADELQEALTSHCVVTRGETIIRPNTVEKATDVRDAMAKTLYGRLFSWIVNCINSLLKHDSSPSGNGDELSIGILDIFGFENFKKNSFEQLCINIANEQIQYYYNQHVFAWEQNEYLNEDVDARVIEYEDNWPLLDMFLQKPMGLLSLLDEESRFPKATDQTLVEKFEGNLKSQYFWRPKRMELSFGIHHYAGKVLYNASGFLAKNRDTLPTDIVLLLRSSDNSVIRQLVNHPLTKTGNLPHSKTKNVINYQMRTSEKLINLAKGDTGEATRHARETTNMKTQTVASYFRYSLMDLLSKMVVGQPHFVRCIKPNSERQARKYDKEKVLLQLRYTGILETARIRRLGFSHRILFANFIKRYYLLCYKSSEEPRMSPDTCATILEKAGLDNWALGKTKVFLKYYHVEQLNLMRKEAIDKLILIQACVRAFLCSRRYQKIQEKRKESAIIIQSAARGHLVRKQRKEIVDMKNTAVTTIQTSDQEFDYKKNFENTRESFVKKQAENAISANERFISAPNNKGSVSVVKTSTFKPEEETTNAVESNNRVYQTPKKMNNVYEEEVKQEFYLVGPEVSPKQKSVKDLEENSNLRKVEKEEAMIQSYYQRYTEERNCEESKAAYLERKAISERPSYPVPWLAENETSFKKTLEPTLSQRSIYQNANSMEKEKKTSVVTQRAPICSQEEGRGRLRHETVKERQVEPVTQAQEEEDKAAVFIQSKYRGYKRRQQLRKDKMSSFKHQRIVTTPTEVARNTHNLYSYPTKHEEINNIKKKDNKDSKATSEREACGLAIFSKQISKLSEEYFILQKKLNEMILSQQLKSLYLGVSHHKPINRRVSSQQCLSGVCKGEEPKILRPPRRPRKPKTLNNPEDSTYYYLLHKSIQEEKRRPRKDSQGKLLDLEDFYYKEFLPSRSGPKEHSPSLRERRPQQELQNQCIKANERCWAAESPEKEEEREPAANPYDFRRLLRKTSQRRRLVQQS

Consider `O=C(Nc1cnn(-c2csc(C(=O)NC3COC3)c2)c1)Nc1ccccc1Cl` [Compound 17, 4-(4-(3-(2-chlorophenyl)ureido)-1H-pyrazol-1-yl)-N-(oxetan-3-yl)thiophene-2-carboxamide], for which the remaining activity at 5 µM was found to be 94.5% in assay [1]; 134% in assay [2]; 100% in assay [3]; 92.4% in assay [4]; 96.2% in assay [5].
For the compound `O=C(Nc1cnn(-c2csc(C(=O)NC3COC3)c2)c1)Nc1c(F)cccc1Cl` [Compound 25, 4-(4-(3-(2-chloro-6-fluorophenyl)ureido)-1H-pyrazol-1-yl)-N-(oxetan-3-yl)thiophene-2-carboxamide], the remaining activity at 5 µM in assay [1] is 82.8%; in assay [2] it was 93.9%; in assay [3], 96.1%; in assay [4], 96.3%; in assay [5], 104%.
On to `Cc1sc(C(=O)NC2COC2)cc1-n1cc(NC(=O)Nc2c(F)cccc2Cl)cn1` [Compound 27, 4-(4-(3-(2-chloro-6-fluorophenyl)ureido)-1H-pyrazol-1-yl)-5-methyl-N-(oxetan-3-yl)thiophene-2-carboxamide], for which the remaining activity at 10 µM came to 91.1% in assay [1] (10 uM); 77.3% in assay [2] (10 uM); 100% in assay [3] (10 uM); 93.2% in assay [4] (10 uM); 105% in assay [5] (10 uM).
